Reference: US12077503B2, “Substituted cyclic amides and their use as herbicides” (FMC CORPORATION, priority 2015, dated 2024)

How the values were obtained:
Format in all cases: in vivo
[1] = tested on: barnyardgrass (Echinochloa crus-galli); experiment: Test G Pre-Emergence Protocol; conditions: Echinochloa crus-galli, pre-emergence, 312 h, evaluated after 13 days; for pest or weed control at 15.625 g/ha: 15.625 g ai/ha, read-out: Barnyard grass damage rating (100=total damage to plant; 0=no damage to plant); for pest or weed control at 62.5 g/ha: 62.5 g ai/ha, 100=total damage to plant, 0=no damage to plant, read-out: plant damage rating, Barnyardgrass; for pest or weed control at 250 g/ha: 250 g ai/ha, read-out: Barnyardgrass damage rating (100=total damage to plant; 0=no damage to plant)
How it was run: (§1)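 Pots of seeds in standard soil were grown for one day in a glasshouse (24/16 °C day/night, 14 h light, 65% humidity), then sprayed with compound in acetone/water 50:50 with 0.5% Tween 20 at 15.625, 62.5 or 250 g/ha. Damage was scored after 13 days on a 0 (none) to 100 (total) scale.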

corn (Zea mays) [2] = experiment: Test G Pre-Emergence Protocol; conditions: Zea mays, pre-emergence, 312 h, evaluated after 13 days; for plant injury at 15.625 g/ha: 15.625 g ai/ha; for plant injury at 15.625 g/ha / plant injury at 250 g/ha: read-out: Corn damage rating (100=total damage to plant; 0=no damage to plant); for plant injury at 62.5 g/ha: 62.5 g ai/ha, 100=total damage to plant, 0=no damage to plant, read-out: plant damage rating, Corn; for plant injury at 250 g/ha: 250 g ai/ha
How it was run: as §1

[3] = tested on: giant foxtail (Setaria faberi); experiment: Test G Pre-Emergence Protocol; conditions: Setaria faberi, pre-emergence, 312 h, evaluated after 13 days; for pest or weed control at 15.625 g/ha: 15.625 g ai/ha; for pest or weed control at 15.625 g/ha / pest or weed control at 250 g/ha: read-out: Foxtail, Giant damage rating (100=total damage to plant; 0=no damage to plant); for pest or weed control at 62.5 g/ha: 62.5 g ai/ha, 100=total damage to plant, 0=no damage to plant, read-out: plant damage rating, Foxtail, Giant; for pest or weed control at 250 g/ha: 250 g ai/ha
How it was run: as §1

[4] = tested on: ivy-leaved morning glory (Ipomoea hederacea); experiment: Test G Pre-Emergence Protocol; conditions: Ipomoea, pre-emergence, 312 h, evaluated after 13 days; for pest or weed control at 15.625 g/ha: 15.625 g ai/ha, read-out: Morning-glory, Ivy-leaved damage rating (100=total damage to plant; 0=no damage to plant); for pest or weed control at 62.5 g/ha: 62.5 g ai/ha, 100=total damage to plant, 0=no damage to plant, read-out: plant damage rating, Morningglory, Ivy-leaved; for pest or weed control at 250 g/ha: 250 g ai/ha, read-out: Morningglory, Ivy-leaved damage rating (100=total damage to plant; 0=no damage to plant)
How it was run: as §1

[5] = tested on: redroot pigweed (Amaranthus retroflexus); experiment: Test G Pre-Emergence Protocol; conditions: Amaranthus retroflexus, pre-emergence, 312 h, evaluated after 13 days; for pest or weed control at 15.625 g/ha: 15.625 g ai/ha; for pest or weed control at 15.625 g/ha / pest or weed control at 250 g/ha: read-out: Pigweed, Redroot damage rating (100=total damage to plant; 0=no damage to plant); for pest or weed control at 62.5 g/ha: 62.5 g ai/ha, 100=total damage to plant, 0=no damage to plant, read-out: plant damage rating, Pigweed, Redroot; for pest or weed control at 250 g/ha: 250 g ai/ha
How it was run: as §1

[6] = tested on: velvetleaf (Abutilon theophrasti); experiment: Test G Pre-Emergence Protocol; conditions: Abutilon theophrasti, pre-emergence, 312 h, evaluated after 13 days; for pest or weed control at 15.625 g/ha: 15.625 g ai/ha; for pest or weed control at 15.625 g/ha / pest or weed control at 250 g/ha: read-out: Velvetleaf damage rating (100=total damage to plant; 0=no damage to plant); for pest or weed control at 62.5 g/ha: 62.5 g ai/ha, 100=total damage to plant, 0=no damage to plant, read-out: plant damage rating, Velvetleaf; for pest or weed control at 250 g/ha: 250 g ai/ha
How it was run: as §1

[7] = tested on: barnyardgrass (Echinochloa crus-galli); experiment: Test G Post-Emergence Protocol; conditions: Echinochloa crus-galli, post-emergence, 312 h; for pest or weed control at 15.625 g/ha: 15.625 g ai/ha, evaluated after 13 days (100=total damage to plant; 0=no damage to plant), read-out: Barnyardgrass damage rating; for pest or weed control at 62.5 g/ha: 62.5 g ai/ha, read-out: Barnyardgrass damage rating (100=total damage to plant; 0=no damage to plant); for pest or weed control at 62.5 g/ha / pest or weed control at 250 g/ha: evaluated after 13 days; for pest or weed control at 250 g/ha: 250 g ai/ha, read-out: damage to plant, Barnyardgrass (100=total damage to plant; 0=no damage to plant)
How it was run: (§2)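 Eight days post-sowing, plants received a spray of test compound (acetone/water 50:50, 0.5% Tween 20) at 15.625, 62.5 or 250 g/ha. Glasshouse regime thereafter: 24/16 °C, 14 h light, 65% humidity. Assessment after 13 days on a 0–100 damage scale.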

corn (Zea mays) [8] = experiment: Test G Post-Emergence Protocol; conditions: Zea mays, post-emergence, 312 h; for plant injury at 15.625 g/ha: 15.625 g ai/ha, evaluated after 13 days (100=total damage to plant; 0=no damage to plant), read-out: Corn damage rating; for plant injury at 62.5 g/ha: 62.5 g ai/ha, read-out: Corn damage rating (100=total damage to plant; 0=no damage to plant); for plant injury at 62.5 g/ha / plant injury at 250 g/ha: evaluated after 13 days; for plant injury at 250 g/ha: 250 g ai/ha, read-out: damage to plant, Corn (100=total damage to plant; 0=no damage to plant)
How it was run: as §2

[9] = tested on: giant foxtail (Setaria faberi); experiment: Test G Post-Emergence Protocol; conditions: Setaria faberi, post-emergence, 312 h; for pest or weed control at 15.625 g/ha: 15.625 g ai/ha, evaluated after 13 days (100=total damage to plant; 0=no damage to plant), read-out: Foxtail, Giant damage rating; for pest or weed control at 62.5 g/ha: 62.5 g ai/ha, read-out: Foxtail, Giant damage rating (100=total damage to plant; 0=no damage to plant); for pest or weed control at 62.5 g/ha / pest or weed control at 250 g/ha: evaluated after 13 days; for pest or weed control at 250 g/ha: 250 g ai/ha, read-out: damage to plant, Foxtail, Giant (100=total damage to plant; 0=no damage to plant)
How it was run: as §2

[10] = tested on: ivy-leaved morning glory (Ipomoea hederacea); experiment: Test G Post-Emergence Protocol; conditions: Ipomoea, post-emergence, 312 h; for pest or weed control at 15.625 g/ha: 15.625 g ai/ha, evaluated after 13 days (100=total damage to plant; 0=no damage to plant), read-out: Morningglory, Ivy-leaved damage rating; for pest or weed control at 62.5 g/ha: 62.5 g ai/ha, read-out: Morningglory, Ivy-leaved damage rating (100=total damage to plant; 0=no damage to plant); for pest or weed control at 62.5 g/ha / pest or weed control at 250 g/ha: evaluated after 13 days; for pest or weed control at 250 g/ha: 250 g ai/ha, read-out: damage to plant, Morningglory, Ivy-leaved (100=total damage to plant; 0=no damage to plant)
How it was run: as §2

[11] = tested on: redroot pigweed (Amaranthus retroflexus); experiment: Test G Post-Emergence Protocol; conditions: Amaranthus retroflexus, post-emergence, 312 h; for pest or weed control at 15.625 g/ha: 15.625 g ai/ha, evaluated after 13 days (100=total damage to plant; 0=no damage to plant), read-out: Pigweed, Redroot damage rating; for pest or weed control at 62.5 g/ha: 62.5 g ai/ha, read-out: Pigweed, Redroot damage rating (100=total damage to plant; 0=no damage to plant); for pest or weed control at 62.5 g/ha / pest or weed control at 250 g/ha: evaluated after 13 days; for pest or weed control at 250 g/ha: 250 g ai/ha, read-out: damage to plant, Pigweed, Redroot (100=total damage to plant; 0=no damage to plant)
How it was run: as §2

[12] = tested on: velvetleaf (Abutilon theophrasti); experiment: Test G Post-Emergence Protocol; conditions: Abutilon theophrasti, post-emergence, 312 h; for pest or weed control at 15.625 g/ha: 15.625 g ai/ha, evaluated after 13 days (100=total damage to plant; 0=no damage to plant), read-out: Velvetleaf damage rating; for pest or weed control at 62.5 g/ha: 62.5 g ai/ha, read-out: Velvetleaf damage rating (100=total damage to plant; 0=no damage to plant); for pest or weed control at 62.5 g/ha / pest or weed control at 250 g/ha: evaluated after 13 days; for pest or weed control at 250 g/ha: 250 g ai/ha, read-out: damage to plant, Velvetleaf (100=total damage to plant; 0=no damage to plant)
How it was run: as §2

CN1C[C@@H](c2ccc(C(F)(F)F)nc2)[C@H](C(=O)Nc2ccccc2F)C1=O (racemic) [Compound 1419]
0%: plant injury at 15.625 g/ha (corn (Zea mays) [2]) | plant injury at 62.5 g/ha (corn (Zea mays) [2]) | pest or weed control at 15.625 g/ha [4] | pest or weed control at 62.5 g/ha [4] | pest or weed control at 15.625 g/ha [5] | pest or weed control at 62.5 g/ha [5] | pest or weed control at 15.625 g/ha [6] | pest or weed control at 62.5 g/ha [6] | pest or weed control at 250 g/ha [6] | pest or weed control at 15.625 g/ha [10] | pest or weed control at 250 g/ha [12]
70%: pest or weed control at 250 g/ha [5] | pest or weed control at 250 g/ha [9]
50%: plant injury at 250 g/ha (corn (Zea mays) [2]) | pest or weed control at 62.5 g/ha [7]
80%: pest or weed control at 62.5 g/ha [1] | pest or weed control at 62.5 g/ha [3]
30%: pest or weed control at 15.625 g/ha [7] | pest or weed control at 250 g/ha [11]
10%: pest or weed control at 15.625 g/ha [1] | pest or weed control at 15.625 g/ha [3] | plant injury at 15.625 g/ha (corn (Zea mays) [8]) | plant injury at 62.5 g/ha (corn (Zea mays) [8]) | pest or weed control at 15.625 g/ha [9] | pest or weed control at 250 g/ha [10] | pest or weed control at 15.625 g/ha [11] | pest or weed control at 15.625 g/ha [12] | pest or weed control at 62.5 g/ha [12]
60%: pest or weed control at 250 g/ha [4] | pest or weed control at 250 g/ha [7] | pest or weed control at 62.5 g/ha [9]
20%: plant injury at 250 g/ha (corn (Zea mays) [8]) | pest or weed control at 62.5 g/ha [10] | pest or weed control at 62.5 g/ha [11]
90%: pest or weed control at 250 g/ha [1] | pest or weed control at 250 g/ha [3]

Cc1c(NC(=O)[C@H]2C(=O)N(C)C[C@@H]2c2ccc(C(F)(F)F)cc2)cccc1C(F)(F)F (racemic) [Compound 1424]
70%: pest or weed control at 250 g/ha [3]
50%: pest or weed control at 250 g/ha [1]
10%: pest or weed control at 62.5 g/ha [1] | pest or weed control at 250 g/ha [7] | plant injury at 250 g/ha (corn (Zea mays) [8]) | pest or weed control at 15.625 g/ha [11]
0%: pest or weed control at 15.625 g/ha [1] | plant injury at 15.625 g/ha (corn (Zea mays) [2]) | plant injury at 62.5 g/ha (corn (Zea mays) [2]) | plant injury at 250 g/ha (corn (Zea mays) [2]) | pest or weed control at 15.625 g/ha [3] | pest or weed control at 15.625 g/ha [4] | pest or weed control at 62.5 g/ha [4] | pest or weed control at 250 g/ha [4] | pest or weed control at 15.625 g/ha [5] | pest or weed control at 62.5 g/ha [5] | pest or weed control at 250 g/ha [5] | pest or weed control at 15.625 g/ha [6] | pest or weed control at 62.5 g/ha [6] | pest or weed control at 250 g/ha [6] | pest or weed control at 15.625 g/ha [7] | pest or weed control at 62.5 g/ha [7] | plant injury at 15.625 g/ha (corn (Zea mays) [8]) | plant injury at 62.5 g/ha (corn (Zea mays) [8]) | pest or weed control at 15.625 g/ha [9] | pest or weed control at 62.5 g/ha [9] | pest or weed control at 15.625 g/ha [10] | pest or weed control at 62.5 g/ha [10] | pest or weed control at 250 g/ha [10] | pest or weed control at 15.625 g/ha [12] | pest or weed control at 62.5 g/ha [12] | pest or weed control at 250 g/ha [12]
40%: pest or weed control at 62.5 g/ha [3]
20%: pest or weed control at 250 g/ha [9] | pest or weed control at 62.5 g/ha [11] | pest or weed control at 250 g/ha [11]
